This assay can be described thus: Binding potency against SP receptor in bovine caudate using [3H]- as radioligand.

Among the data in BindingDB's records for doi:10.1016/S0960-894X(00)80246-2 (1991) are IC50 values, retold here.

A word on the IC50: it is the point on the concentration scale where inhibition reaches its midpoint. Read a high IC50 as weaker potency in that assay. Turning to `Clc1ccccc1CN[C@H]1C2CCN(CC2)[C@H]1C(c1ccccc1)c1ccccc1`, the IC50 worked out at 56 nM.

As for `c1ccc(CN[C@H]2C3CCN(CC3)[C@H]2C(c2ccccc2)c2ccccc2)cc1`, the IC50 is 110 nM.
